Assay results taken from ChEMBL document CHEMBL1909046, “DrugMatrix in vitro pharmacology data”.

Columns and labels:
[1] = molecular target: T1, Alpha-1D adrenergic receptor (Homo sapiens, UniProt P25100); assay type: cell membranes, HEK293, Membrane; settings: hek293; also: in other assays of this panel Not Active means under 50% inhibition at 10 µM
T1 sequence (P25100 whole entry): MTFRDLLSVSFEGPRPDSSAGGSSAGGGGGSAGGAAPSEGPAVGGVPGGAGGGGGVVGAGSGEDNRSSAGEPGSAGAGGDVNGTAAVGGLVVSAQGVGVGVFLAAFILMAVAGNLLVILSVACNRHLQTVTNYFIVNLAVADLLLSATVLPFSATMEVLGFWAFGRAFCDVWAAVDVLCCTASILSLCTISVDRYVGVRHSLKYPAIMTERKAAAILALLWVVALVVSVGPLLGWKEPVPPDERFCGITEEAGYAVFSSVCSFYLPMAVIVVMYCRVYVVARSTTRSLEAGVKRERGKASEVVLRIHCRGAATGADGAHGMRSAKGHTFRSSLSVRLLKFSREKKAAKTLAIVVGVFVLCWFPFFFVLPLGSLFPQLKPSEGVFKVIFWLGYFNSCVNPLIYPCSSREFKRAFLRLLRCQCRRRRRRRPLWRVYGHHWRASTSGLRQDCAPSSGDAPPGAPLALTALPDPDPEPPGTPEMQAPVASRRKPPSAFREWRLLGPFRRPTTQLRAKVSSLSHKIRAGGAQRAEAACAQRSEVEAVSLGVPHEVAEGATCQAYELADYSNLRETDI

[2] = molecular target: Mitogen-activated protein kinase 1 (Homo sapiens, UniProt P28482); assay: DRUGMATRIX: Protein Serine/Threonine Kinase, ERK2 enzyme inhibition (substrate: Myelin Basic Protein); set-up: species or system Escherichia coli; settings: Not Active = under 50% inhibition at 10 µM
Sequence of Mitogen-activated protein kinase 1 (P28482 whole entry): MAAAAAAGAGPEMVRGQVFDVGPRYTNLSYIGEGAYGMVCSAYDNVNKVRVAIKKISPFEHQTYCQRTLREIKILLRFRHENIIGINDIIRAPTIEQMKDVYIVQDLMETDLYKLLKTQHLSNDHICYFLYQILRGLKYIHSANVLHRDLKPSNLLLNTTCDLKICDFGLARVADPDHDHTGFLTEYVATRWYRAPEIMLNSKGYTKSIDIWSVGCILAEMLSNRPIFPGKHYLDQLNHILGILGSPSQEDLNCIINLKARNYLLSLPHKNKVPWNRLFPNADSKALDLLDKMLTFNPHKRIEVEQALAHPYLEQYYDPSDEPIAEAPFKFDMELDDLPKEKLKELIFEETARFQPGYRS

[3] = molecular target: Delta-type opioid receptor (Homo sapiens, UniProt P41143); assay type: cell membranes, HEK293, Membrane; settings: hek293; also: in other assays of this panel Not Active means under 50% inhibition at 10 µM
Sequence of Delta-type opioid receptor (P41143 whole entry): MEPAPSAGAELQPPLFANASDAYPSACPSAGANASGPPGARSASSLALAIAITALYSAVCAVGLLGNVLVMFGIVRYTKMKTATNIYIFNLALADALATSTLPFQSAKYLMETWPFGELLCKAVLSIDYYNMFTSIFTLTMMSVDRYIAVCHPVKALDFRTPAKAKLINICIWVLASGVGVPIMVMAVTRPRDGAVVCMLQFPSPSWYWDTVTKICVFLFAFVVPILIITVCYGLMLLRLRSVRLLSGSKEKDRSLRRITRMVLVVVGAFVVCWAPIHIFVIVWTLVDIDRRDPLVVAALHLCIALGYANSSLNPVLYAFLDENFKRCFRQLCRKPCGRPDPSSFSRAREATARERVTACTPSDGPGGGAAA

Adenosine receptor A3 = molecular target: T2, Adenosine receptor A3 (Homo sapiens, UniProt P0DMS8); assay type: cell membranes, CHO-K1, Membrane;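 also: radioligand binding assay with AB-MECA serving as the labeled ligand; in other assays of this panel Not Active means under 50% inhibition at 10 µM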
T2 sequence (P0DMS8 whole entry): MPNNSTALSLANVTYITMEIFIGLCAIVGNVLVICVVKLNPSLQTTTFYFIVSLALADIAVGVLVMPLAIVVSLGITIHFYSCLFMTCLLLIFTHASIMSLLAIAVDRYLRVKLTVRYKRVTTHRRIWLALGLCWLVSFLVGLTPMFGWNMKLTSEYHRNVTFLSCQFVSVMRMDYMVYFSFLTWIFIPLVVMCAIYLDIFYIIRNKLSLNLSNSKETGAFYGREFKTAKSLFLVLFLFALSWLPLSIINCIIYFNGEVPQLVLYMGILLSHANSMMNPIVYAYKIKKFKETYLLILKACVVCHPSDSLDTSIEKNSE

[4] = molecular target: T3, Muscarinic acetylcholine receptor M5 (Homo sapiens, UniProt P08912); assay type: cell membranes, Membrane; settings: cho-k1; also: in other assays of this panel Not Active means under 50% inhibition at 10 µM
T3 sequence (P08912 whole entry): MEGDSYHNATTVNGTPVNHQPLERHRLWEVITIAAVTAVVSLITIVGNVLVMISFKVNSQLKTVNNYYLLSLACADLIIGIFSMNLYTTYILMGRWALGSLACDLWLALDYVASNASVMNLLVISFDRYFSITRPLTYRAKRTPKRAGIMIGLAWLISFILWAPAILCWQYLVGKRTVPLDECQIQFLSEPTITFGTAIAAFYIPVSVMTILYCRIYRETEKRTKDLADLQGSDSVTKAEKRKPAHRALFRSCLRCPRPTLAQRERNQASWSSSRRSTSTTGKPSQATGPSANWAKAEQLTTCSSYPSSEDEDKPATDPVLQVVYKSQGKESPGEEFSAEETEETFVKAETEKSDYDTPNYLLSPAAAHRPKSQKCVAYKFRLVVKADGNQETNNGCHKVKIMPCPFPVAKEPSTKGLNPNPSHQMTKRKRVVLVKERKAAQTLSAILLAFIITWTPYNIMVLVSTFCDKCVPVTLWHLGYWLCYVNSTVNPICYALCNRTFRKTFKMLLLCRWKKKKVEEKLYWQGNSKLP

Estrogen receptor = molecular target: T4, Estrogen receptor (Homo sapiens, UniProt P03372); settings: sf9; also: in other assays of this panel Not Active means under 50% inhibition at 10 µM
T4 sequence (P03372 whole entry): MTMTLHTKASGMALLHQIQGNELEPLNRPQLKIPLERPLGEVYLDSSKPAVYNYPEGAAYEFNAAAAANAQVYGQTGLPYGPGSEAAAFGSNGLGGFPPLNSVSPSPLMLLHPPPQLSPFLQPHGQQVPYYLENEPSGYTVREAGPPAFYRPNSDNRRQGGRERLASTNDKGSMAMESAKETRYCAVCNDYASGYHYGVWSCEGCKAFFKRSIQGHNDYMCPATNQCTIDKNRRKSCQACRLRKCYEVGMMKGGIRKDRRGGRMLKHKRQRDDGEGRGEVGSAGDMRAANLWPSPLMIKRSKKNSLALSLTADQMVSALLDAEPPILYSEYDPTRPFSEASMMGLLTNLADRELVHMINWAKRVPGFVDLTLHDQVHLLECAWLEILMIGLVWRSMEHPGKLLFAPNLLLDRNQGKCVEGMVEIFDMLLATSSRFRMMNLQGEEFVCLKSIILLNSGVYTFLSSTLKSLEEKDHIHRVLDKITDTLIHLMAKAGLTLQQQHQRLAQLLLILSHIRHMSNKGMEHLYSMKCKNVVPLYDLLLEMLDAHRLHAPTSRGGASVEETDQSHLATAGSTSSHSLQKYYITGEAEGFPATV

CC[C@@H](CO)NC(=O)[C@@H]1C=C2c3cccc4c3c(cn4C)C[C@H]2N(C)C1 [METHYSERGIDE]
Not Active: IC50 [1] | IC50 [2] | IC50 [3] | IC50 (Adenosine receptor A3; cho-k1) | IC50 [4] | IC50 (Estrogen receptor)

O=P(O)(O)C(O)(Cc1cccnc1)P(=O)(O)O [RISEDRONIC ACID]
Not Active: IC50 [1] | IC50 [2] | IC50 [3] | IC50 (Adenosine receptor A3; cho-k1) | IC50 [4] | IC50 (Estrogen receptor)

CN(CCOc1ccc(CC2SC(=O)NC2=O)cc1)c1ccccn1 (stereo not given) [ROSIGLITAZONE]
Not Active: IC50 [1] | IC50 [2] | IC50 [3] | IC50 (Adenosine receptor A3; cho-k1) | IC50 [4] | IC50 (Estrogen receptor)

C#CCN(C)[C@H](C)Cc1ccccc1 [SELEGILINE]
Not Active: IC50 [1] | IC50 [2] | IC50 [3] | IC50 (Adenosine receptor A3; cho-k1) | IC50 [4] | IC50 (Estrogen receptor)

CO[C@H]1C[C@@H]2CC[C@@H](C)[C@@](O)(O2)C(=O)C(=O)N2CCCC[C@H]2C(=O)O[C@H]([C@H](C)C[C@@H]2CC[C@@H](O)[C@H](OC)C2)CC(=O)[C@H](C)/C=C(\C)[C@@H](O)[C@@H](OC)C(=O)[C@H](C)C[C@H](C)/C=C/C=C/C=C/1C [SIROLIMUS]
Not Active: IC50 [1] | IC50 [2] | IC50 [3] | IC50 (Adenosine receptor A3; cho-k1) | IC50 [4] | IC50 (Estrogen receptor)

CN[C@@H]1[C@H](O)[C@H](NC)[C@H]2O[C@@]3(O)C(=O)C[C@@H](C)O[C@H]3O[C@@H]2[C@H]1O [SPECTINOMYCIN]
Not Active: IC50 [1] | IC50 [2] | IC50 [3] | IC50 (Adenosine receptor A3; cho-k1) | IC50 [4] | IC50 (Estrogen receptor)

COc1ncnc(NS(=O)(=O)c2ccc(N)cc2)c1OC [SULFADOXINE]
Not Active: IC50 [1] | IC50 [2] | IC50 [3] | IC50 (Adenosine receptor A3; cho-k1) | IC50 [4] | IC50 (Estrogen receptor)

Nc1ccc(S(=O)(=O)Nc2nccs2)cc1 [SULFATHIAZOLE]
Not Active: IC50 [1] | IC50 [2] | IC50 [3] | IC50 (Adenosine receptor A3; cho-k1) | IC50 [4] | IC50 (Estrogen receptor)

C[C@]12CC[C@H]3[C@@H](CCC4=CC(=O)CC[C@@]43C)[C@@H]1CC[C@@H]2O [TESTOSTERONE]
Not Active: IC50 [1] | IC50 [2] | IC50 [3] | IC50 (Adenosine receptor A3; cho-k1) | IC50 [4] | IC50 (Estrogen receptor)

CCS(=O)(=O)CCn1c([N+](=O)[O-])cnc1C [TINIDAZOLE]
Not Active: IC50 [1] | IC50 [2] | IC50 [3] | IC50 (Adenosine receptor A3; cho-k1) | IC50 [4] | IC50 (Estrogen receptor)

C[C@@H]1C[C@H]2[C@@H]3CCC4=CC(=O)C=C[C@]4(C)C3=CC[C@]2(C)[C@H]1C(=O)CN1CCN(c2cc(N3CCCC3)nc(N3CCCC3)n2)CC1 [TIRILAZAD]
Not Active: IC50 [1] | IC50 [2] | IC50 [3] | IC50 (Adenosine receptor A3; cho-k1) | IC50 [4] | IC50 (Estrogen receptor)

NC[C@H]1O[C@H](O[C@H]2[C@H](O)[C@@H](O[C@H]3O[C@H](CO)[C@@H](O)[C@H](N)[C@H]3O)[C@H](N)C[C@@H]2N)[C@H](N)C[C@@H]1O [TOBRAMYCIN]
Not Active: IC50 [1] | IC50 [2] | IC50 [3] | IC50 (Adenosine receptor A3; cho-k1) | IC50 [4] | IC50 (Estrogen receptor)

COc1ccc(CN2CCNCC2)c(OC)c1OC [TRIMETAZIDINE]
Not Active: IC50 [1] | IC50 [2] | IC50 [3] | IC50 (Adenosine receptor A3; cho-k1) | IC50 [4] | IC50 (Estrogen receptor)

CC(=O)O[C@H]1C[C@@H]2CC[C@@H]3[C@H](CC[C@@]4(C)[C@H]3C[C@H]([N+]3(C)CCCCC3)[C@@H]4OC(C)=O)[C@@]2(C)C[C@@H]1N1CCCCC1.[Br-] [VECURONIUM BROMIDE]
Not Active: IC50 [1] | IC50 [2] | IC50 [3] | IC50 (Adenosine receptor A3; cho-k1) | IC50 [4] | IC50 (Estrogen receptor)

COc1cc(C(=O)NS(=O)(=O)c2ccccc2C)ccc1Cc1cn(C)c2ccc(NC(=O)OC3CCCC3)cc12 [ZAFIRLUKAST]
1.36 µM: IC50 (Adenosine receptor A3; read-out: IC50)
Not Active: IC50 [1] | IC50 [3] | IC50 [4] | IC50 (Estrogen receptor)
0.538 µM: IC50 ([2]; read-out: IC50)
0.77 µM: Ki (Adenosine receptor A3; read-out: Ki)

Cc1cn([C@H]2C[C@H](N=[N+]=[N-])[C@@H](CO)O2)c(=O)[nH]c1=O [ZIDOVUDINE]
Not Active: IC50 [1] | IC50 [2] | IC50 [3] | IC50 (Adenosine receptor A3; cho-k1) | IC50 [4] | IC50 (Estrogen receptor)

STANNOUS FLUORIDE
Not Active: IC50 [1] | Ki [1] | IC50 [2] | Ki [2] | IC50 [3] | Ki [3] | IC50 (Adenosine receptor A3; cho-k1) | Ki (Adenosine receptor A3; cho-k1) | IC50 [4] | Ki [4] | IC50 (Estrogen receptor) | Ki (Estrogen receptor)

THIMEROSAL
Not Active: IC50 [1] | Ki [1] | IC50 [2] | Ki [2] | IC50 [3] | Ki [3] | IC50 [4] | Ki [4] | IC50 (Estrogen receptor) | Ki (Estrogen receptor)
1.91 µM: Ki (Adenosine receptor A3; cho-k1, read-out: Ki)
